From patent US20100216779A1 (GLAXOSMITHKLINE LLC, priority 2007, published 2010)

How the values were obtained:
Format in all cases: cell-based
[1] = system: NCI-H929 (multiple myeloma); assay: Inhibition of cell proliferation, CellTiter-Glo, NCI-H929; conditions: Homo sapiens, 72 h
Method in brief: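 Cells were grown in medium with 10% FBS at 37° C, 5% CO2. Cell number was read as CellTiter-Glo luminescence (cellular ATP), with untreated wells as control.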

[2] = biological target: T1, human IGF-1R (NIH-3T3 cells over expressing human IGF-1R) (Homo sapiens, UniProt P08069); assay: IGF-1R cellular autophosphorylation (DELFIA); conditions: IGF-1 stimulated
T1 construct: expressed in transfected cells; host or cells: NIH-3T3 (mouse fibroblasts)
Method in brief: (§1)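 Read-out: DELFIA on lysates, receptor-specific capture antibody plus europium-labelled anti-phosphotyrosine, reported as % of IGF-1- or insulin-stimulated signal. Transfected NIH-3T3 cells got compound (30 uM–1.5 nM, 2 h) before a 15 min ligand pulse: IGF-1 30 ng/mL for IGF-1R, insulin 3 ug/mL for IR.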

[3] = biological target: T2, IR (NIH-3T3 cells over expressing human IGF-1R or IR) (Homo sapiens, UniProt P06213); assay: IR cellular autophosphorylation (DELFIA); conditions: NIH-3T3 cells over expressing IR, insulin stimulated
T2 construct: expressed in transfected cells; host or cells: NIH-3T3 (mouse fibroblasts)
Method in brief: as §1

[4] = system: COLO205 (colon); assay: Inhibition of cell proliferation, CellTiter-Glo, COLO205; conditions: Homo sapiens, COLO 205, 72 h
Method in brief: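 Exponentially growing COLO205 cells in medium with 10% FBS were plated below 2000 cells/well at 37 °C, 5% CO2. Untreated wells served as controls.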

T2 sequence (P06213 28-1382): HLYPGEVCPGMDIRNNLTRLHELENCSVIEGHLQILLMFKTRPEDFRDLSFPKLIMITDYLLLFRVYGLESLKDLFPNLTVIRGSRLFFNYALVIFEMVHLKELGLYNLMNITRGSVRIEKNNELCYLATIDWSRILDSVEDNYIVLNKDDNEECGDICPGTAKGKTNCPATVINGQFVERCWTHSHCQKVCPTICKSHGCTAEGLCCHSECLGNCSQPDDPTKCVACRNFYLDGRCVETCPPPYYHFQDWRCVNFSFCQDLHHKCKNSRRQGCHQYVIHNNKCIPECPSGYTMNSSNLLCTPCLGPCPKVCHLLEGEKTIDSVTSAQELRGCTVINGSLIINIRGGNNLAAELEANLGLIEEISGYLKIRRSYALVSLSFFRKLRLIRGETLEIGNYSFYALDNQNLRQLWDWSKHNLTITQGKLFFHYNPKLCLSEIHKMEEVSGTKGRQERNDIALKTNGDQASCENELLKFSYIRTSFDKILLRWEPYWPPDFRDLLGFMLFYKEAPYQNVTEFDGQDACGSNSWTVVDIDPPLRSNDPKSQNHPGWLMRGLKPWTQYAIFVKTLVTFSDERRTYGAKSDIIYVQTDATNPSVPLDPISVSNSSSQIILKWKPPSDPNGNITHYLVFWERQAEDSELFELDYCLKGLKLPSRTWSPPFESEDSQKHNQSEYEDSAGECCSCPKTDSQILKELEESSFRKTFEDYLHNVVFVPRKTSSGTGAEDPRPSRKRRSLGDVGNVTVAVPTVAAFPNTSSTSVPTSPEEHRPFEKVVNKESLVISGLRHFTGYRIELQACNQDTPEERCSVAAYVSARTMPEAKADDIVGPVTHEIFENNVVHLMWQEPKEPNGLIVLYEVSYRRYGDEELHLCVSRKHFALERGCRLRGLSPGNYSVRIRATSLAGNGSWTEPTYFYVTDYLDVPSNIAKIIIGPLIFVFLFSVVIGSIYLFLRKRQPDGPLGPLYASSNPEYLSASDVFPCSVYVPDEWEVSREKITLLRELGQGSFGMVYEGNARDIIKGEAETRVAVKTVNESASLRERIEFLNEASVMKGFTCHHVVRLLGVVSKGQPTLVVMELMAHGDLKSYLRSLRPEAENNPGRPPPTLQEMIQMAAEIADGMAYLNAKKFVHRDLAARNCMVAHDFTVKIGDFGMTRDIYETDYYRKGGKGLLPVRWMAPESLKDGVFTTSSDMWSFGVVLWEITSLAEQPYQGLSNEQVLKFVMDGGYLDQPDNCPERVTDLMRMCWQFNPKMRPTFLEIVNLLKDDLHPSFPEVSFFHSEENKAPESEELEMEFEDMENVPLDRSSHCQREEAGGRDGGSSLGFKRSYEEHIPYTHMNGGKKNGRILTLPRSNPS
T1 sequence (P08069 31-1367): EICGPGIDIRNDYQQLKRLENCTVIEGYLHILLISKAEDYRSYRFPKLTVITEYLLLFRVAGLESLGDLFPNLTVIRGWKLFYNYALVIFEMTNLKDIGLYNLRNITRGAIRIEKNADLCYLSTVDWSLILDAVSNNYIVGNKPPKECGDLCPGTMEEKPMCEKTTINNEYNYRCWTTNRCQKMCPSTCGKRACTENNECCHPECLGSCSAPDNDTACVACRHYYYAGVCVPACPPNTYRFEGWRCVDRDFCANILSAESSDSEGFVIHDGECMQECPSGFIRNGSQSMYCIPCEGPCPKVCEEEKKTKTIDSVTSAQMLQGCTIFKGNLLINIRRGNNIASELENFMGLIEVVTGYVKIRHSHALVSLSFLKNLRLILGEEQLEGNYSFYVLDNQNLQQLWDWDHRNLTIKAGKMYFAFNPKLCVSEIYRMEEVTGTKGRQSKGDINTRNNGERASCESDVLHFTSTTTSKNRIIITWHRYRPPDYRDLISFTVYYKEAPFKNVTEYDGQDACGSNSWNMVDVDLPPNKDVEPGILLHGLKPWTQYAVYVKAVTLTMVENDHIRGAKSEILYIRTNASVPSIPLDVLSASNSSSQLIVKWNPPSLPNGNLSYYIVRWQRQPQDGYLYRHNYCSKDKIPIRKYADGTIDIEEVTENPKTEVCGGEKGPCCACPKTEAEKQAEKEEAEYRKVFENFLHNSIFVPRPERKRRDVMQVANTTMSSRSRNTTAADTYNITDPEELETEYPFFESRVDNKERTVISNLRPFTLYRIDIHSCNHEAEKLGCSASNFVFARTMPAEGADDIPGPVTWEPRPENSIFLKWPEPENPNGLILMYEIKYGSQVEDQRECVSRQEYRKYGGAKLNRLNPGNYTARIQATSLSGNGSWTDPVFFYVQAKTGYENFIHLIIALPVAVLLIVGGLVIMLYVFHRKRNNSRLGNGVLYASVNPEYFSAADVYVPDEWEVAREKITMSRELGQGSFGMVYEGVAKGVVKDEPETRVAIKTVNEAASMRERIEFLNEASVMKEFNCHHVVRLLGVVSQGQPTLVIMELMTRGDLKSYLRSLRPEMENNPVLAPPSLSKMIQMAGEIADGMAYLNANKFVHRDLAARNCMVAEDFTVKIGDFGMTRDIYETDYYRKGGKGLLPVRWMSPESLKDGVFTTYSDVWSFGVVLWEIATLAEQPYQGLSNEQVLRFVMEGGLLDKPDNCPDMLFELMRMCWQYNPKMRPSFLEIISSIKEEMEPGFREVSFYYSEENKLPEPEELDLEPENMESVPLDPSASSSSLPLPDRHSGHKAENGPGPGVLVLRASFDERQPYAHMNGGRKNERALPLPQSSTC

| IC50 [1] | IC50 [2] | IC50 [3] | IC50 [4] | Structure (SMILES) |
| --- | --- | --- | --- | --- |
| < 250 nM | < 100 nM | < 100 nM | 250 to 1000 nM | COc1cc(N2CCC(N3CCN4CCOC[C@@H]4C3)CC2)ccc1Nc1nccc(-c2c(-c3cccc(C(=O)Nc4c(F)cccc4F)c3)nc3ccccn23)n1 [Example 87, N-(2,6-difluorophenyl)-3-[3-(2-{[4-{4-[(9aS)-hexahydropyrazino[2,1-c][1,4]oxazin-8(1H)-yl]-1-piperidinyl}-2-(methyloxy)phenyl]amino}-4-pyrimidinyl)imidazo[1,2-a]pyridin-2-yl]benzamide] |
| < 250 nM | < 100 nM | < 100 nM | < 250 nM | CCOc1cc(N2CCC(N3CCN(S(C)(=O)=O)CC3)CC2)c(CC)cc1Nc1nccc(-c2c(-c3ccc(OC)c(C(=O)Nc4c(F)cccc4F)c3)nc3ccccn23)n1 [Example 204, N-(2,6-difluorophenyl)-5-(3-{2-[(5-ethyl-2-(ethyloxy)-4-{4-[4-(methylsulfonyl)-1-piperazinyl]-1-piperidinyl]phenyl)amino]-4-pyrimidinyl}imidazo[1,2-a]pyridin-2-yl)-2-(methyloxy)benzamide] |
| < 250 nM | < 100 nM | < 100 nM | 250 to 1000 nM | COc1cc(N2CCC(N3CCN(CCS(C)(=O)=O)CC3)CC2)ccc1Nc1nccc(-c2c(-c3cccc(C(=O)Nc4c(F)cccc4F)c3)nc3ccccn23)n1 [Example 59, N-(2,6-difluorophenyl)-3-[3-(2-{[2-(methyloxy)-4-(4-{4-[2-(methylsulfonyl)ethyl]-1-piperazinyl}-1-piperidinyl)phenyl]amino}-4-pyrimidinyl)imidazo[1,2-a]pyridin-2-yl]benzamide] |
| < 250 nM | < 100 nM | < 100 nM | 250 to 1000 nM | COc1cc(N2CCC(N3CCN(S(C)(=O)=O)CC3)CC2)c(C)cc1Nc1nccc(-c2c(-c3cccc(C(=O)Nc4c(F)cccc4F)c3)nc3ccccn23)n1 [Example 245, N-(2,6-difluorophenyl)-3-(3-{2-[(5-methyl-2-(methyloxy)-4-{4-[4-(methylsulfonyl)-1-piperazinyl]-1-piperidinyl}phenyl)amino]-4-pyrimidinyl}imidazo[1,2-a]pyridin-2-yl)benzamide] |
| < 250 nM | < 100 nM | < 100 nM | < 250 nM | COc1cc(N2CCC(N3CCN(S(C)(=O)=O)CC3)CC2)ccc1Nc1nccc(-c2c(-c3ccc(OC(C)C)c(C(=O)Nc4c(F)cccc4F)c3)nc3ccccn23)n1 [Example 227, N-(2,6-difluorophenyl)-2-[(1-methylethyl)oxy]-5-(3-{2-[(2-(methyloxy)-4-{4-[4-(methylsulfonyl)-1-piperazinyl]-1-piperidinyl}phenyl)amino]-4-pyrimidinyl}imidazo[1,2-a]pyridin-2-yl)benzamide] |
| < 250 nM | < 100 nM | < 100 nM | 250 to 1000 nM | COc1cc(N2CCC(N3CCN(CCF)C(=O)C3)CC2)ccc1Nc1nccc(-c2c(-c3cccc(C(=O)Nc4c(F)cccc4F)c3)nc3ccccn23)n1 [Example 121, N-(2,6-difluorophenyl)-3-[3-(2-{[4-{4-[4-(2-fluoroethyl)-3-oxo-1-piperazinyl]-1-piperidinyl}-2-(methyloxy)phenyl]amino]-4-pyrimidinyl)imidazo[1,2-a]pyridin-2-yl]benzamide] |
| 250 to 1000 nM | < 100 nM | 100 to 500 nM | 250 to 1000 nM | CCCc1cc(N2CCC(N3CCCCC3)CC2)ccc1Nc1nccc(-c2c(-c3cccc(C(=O)Nc4c(F)cccc4F)c3)nc3ccccn23)n1 [Example 41, 3-[3-(2-{[4-(1,4′-bipiperidin-1′-yl)-2-propylphenyl]amino}-4-pyrimidinyl)imidazo[1,2-a]pyridin-2-yl]-N-(2,6-difluorophenyl)benzamid] |
| < 250 nM | < 100 nM | < 100 nM | 250 to 1000 nM | COc1cc(N2CCC(N3CCC(CCS(C)(=O)=O)CC3)CC2)ccc1Nc1nccc(-c2c(-c3cccc(C(=O)Nc4c(F)cccc4F)c3)nc3ccccn23)n1 [Example 101, N-(2,6-difluorophenyl)-3-(3-{2-[(2-(methyloxy)-4-{4-[2-(methylsulfonyl)ethyl)-1,4′-bipiperidin-1′-yl]phenyl)amino]-4-pyrimidinyl}imidazo[1,2-a]pyridin-2-yl)benzamide] |
| < 250 nM | < 100 nM | < 100 nM | < 250 nM | CCOc1cc(N2CCC(N3CCN(S(C)(=O)=O)CC3)CC2)ccc1Nc1nccc(-c2c(-c3ccc(OC)c(C(=O)Nc4c(F)cccc4F)c3)nc3ccccn23)n1 [Example 223, N-(2,6-difluorophenyl)-5-(3-{2-[(2-(ethyloxy)-4-{4-[4-(methylsulfonyl)-1-piperazinyl]-1-piperidinyl}phenyl)amino]-4-pyrimidinyl}imidazo[1,2-a]pyridin-2-yl)-2-(methyloxy)benzamide] |
| < 250 nM | < 100 nM | < 100 nM | 250 to 1000 nM | COc1cc(N2CCC(N3CCCCC3)CC2)c(OC)cc1Nc1nccc(-c2c(-c3cccc(C(=O)Nc4c(F)cccc4F)c3)nc3ccccn23)n1 [Example 110, 3-[3-(2-{[4-(1,4′-bipiperidin-1′-yl)-2,5-bis(methyloxy)phenyl]amino}-4-pyrimidinyl)imidazo[1,2-a]pyridin-2-yl]-N-(2,6-difluorophenyl)benzamide] |
| < 250 nM | < 100 nM | < 100 nM | 250 to 1000 nM | COCCN1CCN(c2cc(OC)c(Nc3nccc(-c4c(-c5ccc(OC)c(C(=O)Nc6c(F)cccc6F)c5)nc5ccccn45)n3)cc2C)CC1 [Example 242, N-(2,6-difluorophenyl)-5-(3-{2-[(5-methyl-2-(methyloxy)-4-{4-[2-(methyloxy)ethyl]-1-piperazinyl}phenyl)amino]-4-pyrimidinyl}imidazo[1,2-a]pyridin-2-yl)-2-(methyloxy)benzamide] |
| < 250 nM | < 100 nM | < 100 nM | 250 to 1000 nM | CCCN1CCN(c2ccc(Nc3nccc(-c4c(-c5ccc(OC)c(C(=O)Nc6c(F)cccc6F)c5)nc5ccccn45)n3)c(OC)c2)CC1 [Example 174, N-(2,6-difluorophenyl)-2-(methyloxy)-5-[3-(2-{[2-(methyloxy)-4-(4-propyl-1-piperazinyl)phenyl]amino}-4-pyrimidinyl)imidazo[1,2-a]pyridin-2-yl]benzamide] |
| < 250 nM | < 100 nM | < 100 nM | 250 to 1000 nM | CCCN1CCC(c2ccc(Nc3nccc(-c4c(-c5cccc(C(=O)Nc6c(F)cccc6F)c5)nc5ccccn45)n3)c(OCC)c2)CC1 [Example 155, N-(2,6-difluorophenyl)-3-[3-(2-{[2-(ethyloxy)-4-(1-propyl-4-piperidinyl)phenyl]amino}-4-pyrimidinyl)imidazo[1,2-a]pyridin-2-yl]benzamide] |
| 250 to 1000 nM | < 100 nM | 100 to 500 nM | 250 to 1000 nM | COc1cc(N2CCC(N3CCCN(C)CC3)CC2)ccc1Nc1nccc(-c2c(-c3cccc(C(=O)Nc4c(F)cccc4F)c3)nc3ccccn23)n1 [Example 48, N-(2,6-difluorophenyl)-3-[3-(2-{[4-[4-(4-methylhexahydro-1H-1,4-diazepin-1-yl)-1-piperidinyl}-2-(methyloxy)phenyl]amino}-4-pyrimidinyl)imidazo[1,2-a]pyridin-2-yl]benzamide] |
| < 250 nM | < 100 nM | < 100 nM | < 250 nM | CCOc1ccc(-c2nc3ccccn3c2-c2ccnc(Nc3cc(C)c(N4CCC(CCS(C)(=O)=O)CC4)cc3OC)n2)cc1C(=O)Nc1c(F)cccc1F [Example 229, N-(2,6-difluorophenyl)-2-(ethyloxy)-5-(3-{2-[(5-methyl-2-(methyloxy)-4-{4-[2-(methylsulfonyl)ethyl]-1-piperidinyl}phenyl)amino]-4-pyrimidinyl}imidazo[1,2-a]pyridin-2-yl)benzamide] |

| Structure (SMILES) | IC50 [1] | IC50 [2] | IC50 [3] | IC50 [4] |
| --- | --- | --- | --- | --- |
| COc1cc(N2CCC(N3CCN(CCF)CC3)CC2)ccc1Nc1nccc(-c2c(-c3cccc(C(=O)Nc4c(F)cccc4F)c3)nc3c(F)cccn23)n1 [Example 188, N-(2,6-difluorophenyl)-3-[8-fluoro-3-(2-{[4-{4-[4-(2-fluoroethyl)-1-piperazinyl]-1-piperidinyl}-2-(methyloxy)phenyl]amino}-4-pyrimidinyl)imidazo[1,2-a]pyridin-2-yl]benzamide] | 250 to 1000 nM | < 100 nM | 100 to 500 nM | > 1000 nM |
| COc1cc(N2CCC(N3CCN(CCF)CC3)CC2)c(C)cc1Nc1nccc(-c2c(-c3cccc(C(=O)Nc4c(F)cccc4F)c3)nc3ccccn23)n1 [Example 113, N-(2,6-difluorophenyl)-3-[3-(2-{[4-{4-[4-(2-fluoroethyl)-1-piperazinyl]-1-piperidinyl}-5-methyl-2-(methyloxy)phenyl]amino]-4-pyrimidinyl)imidazo[1,2-a]pyridin-2-yl]benzamide] | 250 to 1000 nM | < 100 nM | < 100 nM | > 1000 nM |
| COc1cc(N2CCC(C3CCN(CCF)CC3)CC2)ccc1Nc1nccc(-c2c(-c3cccc(C(=O)Nc4c(F)cccc4F)c3)nc3ccccn23)n1 [Example 95, N-(2,6-difluorophenyl)-3-[3-(2-{[4-[1′-(2-fluoroethyl)-4,4′-bipiperidin-1-yl]-2-(methyloxy)phenyl]amino}-4-pyrimidinyl)imidazo[1,2-a]pyridin-2-yl]benzamide] | 250 to 1000 nM | < 100 nM | 100 to 500 nM | > 1000 nM |
